{
  "source": "patent US6995182B2",
  "about": "“1-sulfonyl pyrrolidine derivatives” (Hoffmann-La Roche Inc., priority 2000, dated 2006)",
  "data": [
    {"units": {"melting point": "°C"}, "values": [
      {"smiles": "Cc1ccc(S(=O)(=O)N2[C@H](CCCc3nc(C)no3)CC[C@@H]2c2ccc(F)cc2)cc1", "note": "(racemic) [Example 71, (2RS,5RS)-5-{3-[5-(4-Fluoro-phenyl)-1-(toluene-4-sulfonyl)-pyrrolidin-2-yl]-propyl}-3-methyl-[1,2,4]oxadiazole]", "melting point": 91},
      {"smiles": "Cc1ccc(S(=O)(=O)N2[C@@H](Cc3nc(C4CC4)no3)CC[C@H]2c2ccc(F)cc2)cc1", "note": "(racemic) [Example 95, (2RS,5SR)-3-Cyclopropyl-5-[5-(4-fluoro-phenyl)-1-(toluene-4-sulfonyl)-pyrrolidin-2-ylmethyl]-[1,2,4]oxadiazole]", "melting point": 102},
      {"smiles": "CC(=O)NCC[C@H]1CC[C@@H](c2ccc(F)cc2)N1S(=O)(=O)c1ccc(C)cc1", "note": "(racemic) [Example 20, (2RS,5SR)-N-{2-[5-(4-Fluoro-phenyl)-1-(toluene-4-sulfonyl)-pyrrolidin-2-yl]-ethyl}-acetamide]", "melting point": 124},
      {"smiles": "COC(=O)[C@H]1CC[C@@H](c2ccc(F)cc2)N1S(=O)(=O)c1ccc(C)cc1", "note": "(racemic) [Example 1, (2RS,5SR)-5-(4-Fluoro-phenyl)-1-(toluene-4-sulfonyl)-pyrrolidine-2-carboxylic acid methyl ester]", "melting point": 91},
      {"smiles": "Cc1ccc(S(=O)(=O)N2[C@@H](c3nnn(C)n3)CC[C@H]2c2ccc(F)cc2)cc1", "note": "(racemic) [Example 27, (2RS,5SR)-5-[5-(4-Fluoro-phenyl)-1-(toluene-4-sulfonyl)-pyrrolidin-2-yl]-2-methyl-2H-tetrazole]", "melting point": 150},
      {"smiles": "Cc1ccc(S(=O)(=O)N2[C@@H](C(=N)NO)CC[C@H]2c2ccc(F)cc2)cc1", "note": "(racemic) [Example 7, (2RS,5SR)-5-(4-Fluoro-phenyl)-N-hydroxy-1-(toluene-4-sulfonyl)-pyrrolidine-2-carboxamidine]", "melting point": 217},
      {"smiles": "Cc1ccc(S(=O)(=O)N2[C@@H](CCO)CC[C@H]2c2ccc(F)cc2)cc1", "note": "(racemic) [Example 98, (2RS,5SR)-2-[5-(4-Fluoro-phenyl)-1-(toluene-4-sulfonyl)-pyrrolidin-2-yl]-ethanol]", "melting point": 129},
      {"smiles": "Cc1ccc(S(=O)(=O)N2[C@@H](c3ncn(C)n3)CC[C@H]2c2ccc(F)cc2)cc1", "note": "(racemic) [Example 26, (2RS,5SR)-3-[5-(4-Fluoro-phenyl)-1-(toluene-4-sulfonyl)-pyrrolidin-2-yl]-1-methyl-1H-[1,2,4]triazole]", "melting point": 160},
      {"smiles": "Cc1ccc(S(=O)(=O)N2[C@@H](CNC(=O)C3CCCC3)CC[C@H]2c2ccc(F)cc2)cc1", "note": "(racemic) [Example 37, (2RS,5SR)-Cyclopentanecarboxylic acid [5-(4-fluoro-phenyl)-1-(toluene-4-sulfonyl)-pyrrolidin-2-yl-methyl]-amide]", "melting point": 147},
      {"smiles": "O=C(NCC[C@H]1CC[C@@H](c2ccc(F)cc2)N1S(=O)(=O)c1ccc(Cl)cc1)C1CC1", "note": "(racemic) [Example 57, (2RS,5SR)-Cyclopropanecarboxylic acid {2-[1-(4-chloro-benzenesulfonyl)-5-(4-fluoro-phenyl)-pyrrolidin-2-yl]-ethyl}-amide]", "melting point": 80},
      {"smiles": "Cc1ccc(S(=O)(=O)N2[C@@H](C(N)=O)CC[C@H]2c2ccc(F)cc2)cc1", "note": "(racemic) [Example 3, (2RS,5SR)-5-(4-Fluoro-phenyl)-1-(toluene-4-sulfonyl)-pyrrolidine-2-carboxylic acid amide]", "melting point": 137},
      {"smiles": "Cc1ccc(S(=O)(=O)N2[C@@H](CCC(N)=O)CC[C@H]2c2ccc(F)cc2)cc1", "note": "(racemic) [Example 29, (2RS,5SR)-3-[5-(4-Fluoro-phenyl)-1-(toluene-4-sulfonyl)-pyrrolidin-2-yl]-propionamide]", "melting point": 136},
      {"smiles": "Cc1ccc(S(=O)(=O)N2[C@@H](CO)CC[C@H]2c2ccc(F)cc2)cc1", "note": "[Example 58, (2R,5S)-[5-(4-Fluoro-phenyl)-1-(toluene-4-sulfonyl)-pyrrolidin-2-yl]-methanol]", "melting point": 140},
      {"smiles": "CC(=O)NC[C@H]1CC[C@@H](c2ccc(F)cc2)N1S(=O)(=O)c1ccc(C)cc1", "note": "(racemic) [Example 9, (2RS,5SR)-N-[5-(4-Fluoro-phenyl)-1-(toluene-4-sulfonyl)-pyrrolidin-2-yl-methyl]-acetamide]", "melting point": 117},
      {"smiles": "Cc1ccc(S(=O)(=O)N2[C@@H](CO)CC[C@H]2c2ccc(F)cc2)cc1", "note": "(racemic) [Example 2, (2RS,5SR)-[5-(4-Fluoro-phenyl)-1-(toluene-4-sulfonyl)-pyrrolidin-2-yl]-methanol]", "melting point": 82},
      {"smiles": "CCC(=O)NC[C@H]1CC[C@@H](c2ccc(F)cc2)N1S(=O)(=O)c1ccc(C)cc1", "note": "(racemic) [Example 15, (2RS,5SR)-N-[5-(4-Fluoro-phenyl)-1-(toluene-4-sulfonyl)-pyrrolidin-2-yl-methyl]-propionamide]", "melting point": 142},
      {"smiles": "CC(=O)NCCC[C@@H]1CC[C@H](c2ccc(F)cc2)N1S(=O)(=O)c1ccc(Cl)cc1", "note": "(racemic) [Example 66, (2RS,5RS)-N-{3-[1-(4-Chloro-benzenesulfonyl)-5-(4-fluoro-phenyl)-pyrrolidin-2-yl]-propyl}-acetamide]", "melting point": 49},
      {"smiles": "Cc1ccc(S(=O)(=O)N2[C@@H](Cc3nc(C)no3)CC[C@H]2c2ccc(F)cc2)cc1", "note": "(racemic) [Example 96, (2RS,5SR)-5-[5-(4-Fluoro-phenyl)-1-(toluene-4-sulfonyl)-pyrrolidin-2-ylmethyl]-3-methyl-[1,2,4]oxadiazole]", "melting point": 103},
      {"smiles": "Cc1ccc(S(=O)(=O)N2[C@@H](CCc3nc(C4CC4)no3)CC[C@H]2c2ccc(F)cc2)cc1", "note": "(racemic) [Example 75, (2RS,5SR)-3-Cyclopropyl-5-{2-[5-(4-fluoro-phenyl)-1-(toluene-4-sulfonyl)-pyrrolidin-2-yl]-ethyl}-[1,2,4]oxadiazole]", "melting point": 129},
      {"smiles": "Cc1ccc(S(=O)(=O)N2[C@@H](c3ncon3)CC[C@H]2c2ccc(F)cc2)cc1", "note": "(racemic) [Example 14, (2RS,5SR)-3-[5-(4-Fluoro-phenyl)-1-(toluene-4-sulfonyl)-pyrrolidin-2-yl]-[1,2,4]oxadiazole]", "melting point": 165},
      {"smiles": "Cc1ccc(S(=O)(=O)N2[C@@H](CCC#N)CC[C@H]2c2ccc(F)cc2)cc1", "note": "(racemic) [Example 31, (2RS,5SR)-3-[5-(4-Fluoro-phenyl)-1-(toluene-4-sulfonyl)-pyrrolidin-2-yl]-propionitrile]", "melting point": 86},
      {"smiles": "Cc1ccc(S(=O)(=O)N2[C@H](CCCCC#N)CC[C@@H]2c2ccc(F)cc2)cc1", "note": "(racemic) [Example 51, (2RS,5RS)-5-[5-(4-Fluoro-phenyl)-1-(toluene-4-sulfonyl)-pyrrolidin-2-yl]-pentanenitrile]", "melting point": 79},
      {"smiles": "Cc1ccc(S(=O)(=O)N2[C@@H](C(=O)NCc3cccnc3)CC[C@H]2c2ccc(F)cc2)cc1.Cl", "note": "(racemic)", "melting point": 186},
      {"smiles": "Cc1ccc(S(=O)(=O)N2[C@H](CCCC#N)CC[C@@H]2c2ccc(F)cc2)cc1", "note": "(racemic) [Example 45, (2RS,5RS)-4-[5-(4-Fluoro-phenyl)-1-(toluene-4-sulfonyl)-pyrrolidin-2-yl]-butyronitrile]", "melting point": 74},
      {"smiles": "Cc1ccc(S(=O)(=O)N2[C@@H](CC#N)CC[C@H]2c2ccc(F)cc2)cc1", "note": "(racemic) [Example 10, (2RS,5SR)-[5-(4-Fluoro-phenyl)-1-(toluene-4-sulfonyl)-pyrrolidin-2-yl]-acetonitrile]", "melting point": 116},
      {"smiles": "Cc1ccc(S(=O)(=O)N2[C@H](CCCc3nnnn3C)CC[C@@H]2c2ccc(F)cc2)cc1", "note": "(racemic) [Example 50, (2RS,5RS)-5-{3-[5-(4-Fluoro-phenyl)-1-(toluene-4-sulfonyl)-pyrrolidin-2-yl]-propyl}-1-methyl-1H-tetrazole]", "melting point": 153},
      {"smiles": "Cc1ccc(S(=O)(=O)N2C(C3=NOC(C)N3)CCC2c2ccc(F)cc2)cc1", "note": "(centres unmarked) [Example 28, 3-[5-(4-Fluoro-phenyl)-1-(toluene-4-sulfonyl)-pyrrolidin-2-yl]-5-methyl-4,5-dihydro-[1,2,4]oxadiazole]", "melting point": 68},
      {"smiles": "Cn1nnc(CC[C@H]2CC[C@@H](c3ccc(F)cc3)N2S(=O)(=O)c2ccc(Cl)cc2)n1", "note": "(racemic) [Example 73, (2RS,5SR)-5-{2-[1-(4-Chloro-benzenesulfonyl)-5-(4-fluoro-phenyl)-pyrrolidin-2-yl]-ethyl}-2-methyl-2H-tetrazole]", "melting point": 122},
      {"smiles": "Cc1ccc(S(=O)(=O)N2[C@@H](CCc3ncnn3C)CC[C@H]2c2ccc(F)cc2)cc1", "note": "(racemic) [Example 78, (2RS,5SR)-5-{2-[5-(4-Fluoro-phenyl)-1-(toluene-4-sulfonyl)-pyrrolidin-2-yl]-ethyl}-1-methyl-1H-[1,2,4]triazole]", "melting point": 145},
      {"smiles": "Cc1ccc(S(=O)(=O)N2[C@@H](CCCO)CC[C@@H]2c2ccc(F)cc2)cc1", "note": "(racemic) [Example 44, (2RS,5RS)-3-[5-(4-Fluoro-phenyl)-1-(toluene-4-sulfonyl)-pyrrolidin-2-yl]-propan-1-ol]", "melting point": 93},
      {"smiles": "Cc1ccc(S(=O)(=O)N2[C@@H](CCNC(=O)c3ccccc3)CC[C@H]2c2ccc(F)cc2)cc1", "note": "(racemic) [Example 18, (2RS,5SR)-N-{2-[5-(4-Fluoro-phenyl)-1-(toluene-4-sulfonyl)-pyrrolidin-2-yl]-ethyl}-benzamide]", "melting point": 60},
      {"smiles": "Cc1ccc(S(=O)(=O)N2[C@@H](c3nc(C)no3)CC[C@H]2c2ccc(F)cc2)cc1", "note": "(racemic) [Example 25, (2RS,5SR)-5-[5-(4-Fluoro-phenyl)-1-(toluene-4-sulfonyl)-pyrrolidin-2-yl]-3-methyl-[1,2,4]oxadiazole]", "melting point": 128},
      {"smiles": "Cc1ccc(S(=O)(=O)N2[C@H](CCCCc3nnnn3C)CC[C@@H]2c2ccc(F)cc2)cc1", "note": "(racemic) [Example 54, (2RS,5RS)-5-{4-[5-(4-Fluoro-phenyl)-1-(toluene-4-sulfonyl)-pyrrolidin-2-yl]-butyl}-1-methyl-1H-tetrazole]", "melting point": 120},
      {"smiles": "COC[C@@H]1CC[C@H](c2ccc(F)cc2)N1S(=O)(=O)c1ccc(C)cc1", "note": "(racemic) [Example 8, (2RS,5SR)-2-(4-Fluoro-phenyl)-5-methoxymethyl-1-(toluene-4-sulfonyl)-pyrrolidine]", "melting point": 152},
      {"smiles": "Cc1ccc(S(=O)(=O)N2[C@@H](CNC(=O)C(C)(C)C)CC[C@H]2c2ccc(F)cc2)cc1", "note": "(racemic) [Example 38, (2RS,5SR)-N-[5-(4-Fluoro-phenyl)-1-(toluene-4-sulfonyl)-pyrrolidin-2-yl-methyl]-2,2-dimethyl-propionamide]", "melting point": 128}
    ]}
  ]
}
